According to US20140073801A1, “PYRROLIDINE DERIVATIVES AS SELECTIVE GLYCOSIDASE INHIBITORS AND USES THEREOF” (Summit Corporation Plc, priority 2011, published 2014):

Key:
[1] = target: T1, human OGA (Homo sapiens, UniProt O60502); test: Determination of IC50 values for inhibition of human OGA; format: biochemical
T1 construct: made in house
T1 sequence (O60502 1-916): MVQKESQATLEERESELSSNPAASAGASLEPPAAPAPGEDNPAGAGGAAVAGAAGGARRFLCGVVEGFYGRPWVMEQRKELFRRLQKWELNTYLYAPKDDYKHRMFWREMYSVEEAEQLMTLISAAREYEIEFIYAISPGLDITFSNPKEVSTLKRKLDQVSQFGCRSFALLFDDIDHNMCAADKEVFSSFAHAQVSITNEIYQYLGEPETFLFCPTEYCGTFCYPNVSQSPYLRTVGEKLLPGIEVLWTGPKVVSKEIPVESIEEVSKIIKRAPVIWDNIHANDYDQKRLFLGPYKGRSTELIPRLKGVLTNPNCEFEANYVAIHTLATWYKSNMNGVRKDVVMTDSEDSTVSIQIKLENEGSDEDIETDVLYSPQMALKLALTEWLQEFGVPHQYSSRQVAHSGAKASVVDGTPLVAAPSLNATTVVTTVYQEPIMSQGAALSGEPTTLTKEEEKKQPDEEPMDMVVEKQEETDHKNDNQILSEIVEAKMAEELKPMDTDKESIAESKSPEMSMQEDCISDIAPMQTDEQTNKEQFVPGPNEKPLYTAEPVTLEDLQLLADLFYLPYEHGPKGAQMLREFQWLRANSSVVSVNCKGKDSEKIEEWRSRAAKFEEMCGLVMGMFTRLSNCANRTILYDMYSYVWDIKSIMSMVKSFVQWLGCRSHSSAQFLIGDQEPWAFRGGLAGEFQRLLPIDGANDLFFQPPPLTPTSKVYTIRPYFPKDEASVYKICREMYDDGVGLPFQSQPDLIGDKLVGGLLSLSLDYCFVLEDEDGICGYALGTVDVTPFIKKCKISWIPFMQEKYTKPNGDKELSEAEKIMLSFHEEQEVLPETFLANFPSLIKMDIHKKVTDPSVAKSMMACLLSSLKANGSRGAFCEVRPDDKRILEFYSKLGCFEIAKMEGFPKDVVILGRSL
Protocol: Inhibitors identified from the screen described in Example 1 were evaluated for IC50 using a procedure adapted from Biochem. J. 2009, 420, 221-227. IC50 determination was carried out using a range of inhibitor concentrations from 300 μM to 0.003 μM or 100 μM to 0.001 μM. IC50 values were calculated using XLFit 4.

[2] = system: human β-hexosaminidase [human placenta] (HexA/B); test: Determination of IC50 values for inhibition of human β-hexosaminidase; format: biochemical; details: ratio
In short: (§1)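 Inhibitor titrated from 300 μM to 0.003 μM or 100 μM to 0.001 μM. IC50 values come from curve fits, and selectivity is IC50(β-hexosaminidase)/IC50(human OGA).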

[3] = target: T2, human β-hexosaminidase [human placenta] (HexA/B); test: as above; format: biochemical; details: human β-hexosaminidase, human placenta; room temperature, thirty minutes
T2 construct: other: human β-hexosaminidase, human placenta; room temperature, thirty minutes
In short: as §1

[4] = target: T1, human OGA; test: Determination of Ki values for inhibition of human OGA (4MU-GlcNAc substrate); format: biochemical; details: 2 nM human OGA, McIlvaine buffer pH 7.4, one hour
Protocol: Enzymatic reactions were carried out in McIlvaine buffer (0.2M Na2PO4, 0.1M citric acid; pH 7.4) using 2 nM human OGA and 4MU-GlcNAc as substrate in the presence of inhibitor. For the Ki of AXX inhibitor concentrations were 0, 20, 40, 80, 160 and 320 nM [for the Ki determination of other compounds either the same concentrations or similar concentrations were used] and 4MU-GlcNAc concentrations were 50, 100, 200, 400, 800, 1600, and 3200 μM. Reactions were left for one hour. […] Modes of inhibition were determined by Lineweaver-Burke analysis and Ki values were determined using GraphPad 5 Prism non-linear regression analysis.

[5] = system: O-GlcNAc modified proteins in PC-12 cells or SH-SY5Y cells; test: Western blot analyses of O-GlcNAc modified proteins in cells; format: cell-based; details: for EC50: western blot, cells dosed 4 hours at 37° C., cell line not given
Protocol: PC-12 cells or SH-SY5Y cells were dosed with the test compound or vehicle control at 37° C. for 4 hours. Once the incubation was completed the media was removed and cells were lysed. Extracted protein was then used for Western blot analysis using standard molecular biology techniques. The resulting membrane was probed with antibodies specific for tau phosphorylation sites (pSer396, pSer422, pThr231, pSer262) or with antibodies specific for O-GlcNAcylation sites (RL-2 or CTD110.6). The primary antibodies were visualised using appropriate secondary conjugated with the fluorophores Alexa 532 or Alexa 488. Actin was visualised using a FITC conjugated primary antibody. Relative quantification was measured in relation to the actin signal using Image lab software (BRL). Marked increases in O-GlcNAcylated proteins within the cells were observed as compared to controls when cells were dosed with test compound.

[6] = target: T3, human OGA (hOGA) (Homo sapiens, UniProt O60502); test: Screening of inhibitor library against human OGA (single point, triplicate); format: biochemical; details: 100 μM inhibitor concentration
T3 construct: made in house
T3 sequence (O60502 1-916): T1 sequence (O60502 1-916)
Protocol: Expressed and purified human OGA (hOGA) was screened against a library of compounds (compounds stored in 100% DMSO at a concentration of 10 mM) according to a procedure modified from that detailed in Biochem. J. 2009, 420, 221-227 and using the reaction reagents set out in the Table (below). The modification to the published protocol was that an emission wavelength of 450 nm was used rather than […]. Assays were run at singlepoint in triplicate. Inhibitors for further evaluation were selected based on an average observed inhibition greater than 50%.

| Compound | IC50 [1] [nM] | Selectivity: IC50(human β-hexosaminidase)/IC50(Human OGA) [2] | IC50 [3] [µM] | Ki [4] [nM] | EC50 [5] [nM] | inhibition at 100 µM [6] [%] | cellular levels of O-GlcNAc modified proteins relative to vehicle (FIG. 2) ([5]; SH-SY5Y cells, 4 hours) | cellular levels of O-GlcNAc modified proteins relative to vehicle (FIG. 1) ([5]; SH-SY5Y cells, 4 hours, varying concentrations) |
| --- | --- | --- | --- | --- | --- | --- | --- | --- |
| CNC(=O)C[C@@H]1[C@H](O)[C@H](O)[C@@H](CO)N1CCCc1ccccc1 [Compound A016, 2-((2R,3S,4R,5R)-3,4-dihydroxy-5-(hydroxymethyl)-1-(3-phenylpropyl)pyrrolidin-2-yl)-N-methylacetamide] | < 3 | >18000 | 54 | 11 | 255 | – | increase | – |
| CCCCNC(=O)C[C@@H]1[C@H](O)[C@H](O)[C@@H](CO)N1CCCCCCCCCO [Compound A003, N-butyl-2-((2R,3S,4R,5R)-3,4-dihydroxy-5-(hydroxymethyl)-1-(9-hydroxynonyl)pyrrolidin-2-yl)acetamide] | 74600 | >4 | > 300 | – | – | 82.8 | – | – |
| CCCCCCCCCN1[C@H](CC(=O)NCCCC)[C@H](O)[C@H](O)[C@H]1CO [Compound A001, N-butyl-2-((2R,3S,4R,5R)-3,4-dihydroxy-5-(hydroxymethyl)-1-nonylpyrrolidin-2-yl)acetamide] | 58000 | >5 | > 300 | – | – | 89.6 | – | – |
| CCCCNC(=O)C[C@H]1N[C@H](CO)[C@@H](O)[C@H]1O [Compound A002, N-butyl-2-((2R,3S,4R,5R)-3,4-dihydroxy-5-(hydroxymethyl)pyrrolidin-2-yl)acetamide] | 75000 | >4 | > 300 | – | – | 52.8 | – | – |
| CNC(=O)C[C@@H]1[C@H](O)[C@H](O)[C@@H](CO)N1CCCCC(C)C [Compound A021, 2-((2R,3S,4R,5R)-3,4-dihydroxy-5-(hydroxymethyl)-1-(5-methylhexyl)pyrrolidin-2-yl)-N-methylacetamide] | 8 | >37037 | > 300 | 41 | 604 | – | increase | – |
| CCCCCCN1[C@H](CC(=O)NC)[C@H](O)[C@H](O)[C@H]1CO [Compound A012, 2-((2R,3S,4R,5R)-1-hexyl-3,4-dihydroxy-5-(hydroxymethyl)pyrrolidin-2-yl)-N-methylacetamide] | 49 | >6085 | > 300 | 70 | 656 | – | increase | increase |

Further lines, with some results ahead:

| IC50 [1] [nM] | Selectivity: IC50(human β-hexosaminidase)/IC50(Human OGA) [2] | IC50 [3] [µM] | Ki [4] [nM] | EC50 [5] [nM] | inhibition at 100 µM [6] [%] | Compound | cellular levels of O-GlcNAc modified proteins relative to vehicle (FIG. 2) ([5]; SH-SY5Y cells, 4 hours) | cellular levels of O-GlcNAc modified proteins relative to vehicle (FIG. 1) ([5]; SH-SY5Y cells, 4 hours, varying concentrations) |
| --- | --- | --- | --- | --- | --- | --- | --- | --- |
| < 3 | >3633 | 10.9 | 3 | 20 | – | CNC(=O)C[C@@H]1[C@H](O)[C@H](O)[C@@H](CO)N1CCCCCNS(=O)(=O)c1ccc(-c2ccccc2)cc1 [Compound A066, 2-((2R,3S,4R,5R)-1-(5-([1,1′-biphenyl]-4-ylsulfonamido)pentyl)-3,4-dihydroxy-5-(hydroxymethyl)pyrrolidin-2-yl)-N-methylacetamide] | – | – |
| 11 | >28571 | > 300 | 72 | 1230 | – | CCCNC(=O)C[C@@H]1[C@H](O)[C@H](O)[C@@H](CO)N1CCCCc1ccccc1 [Compound A022, 2-((2R,3S,4R,5R)-3,4-dihydroxy-5-(hydroxymethyl)-1-(4-phenylbutyl)pyrrolidin-2-yl)-N-propylacetamide] | – | – |
| 11 | >27272 | > 300 | 167 | 263 | – | CCNC(=O)C[C@@H]1[C@@H](O)[C@H](O)[C@@H](CO)N1CCCc1ccc(OC)cc1 [Compound A060, 2-((2R,3R,4R,5R)-3,4-dihydroxy-5-(hydroxymethyl)-1-(3-(4-methoxyphenyl)propyl)pyrrolidin-2-yl)-N-ethylacetamide] | – | – |
